This assay concerns pY641-STAT6 in Peripheral Blood Mononuclear Cells (PBMC). The experiment in a line: MSD-pSTAT-PBMC Assay (pSTAT6, IL-4 stimulated). The assay is classed as cell-based, Human. The note with it: Homo sapiens, compound 3 hrs, then 1 ng/mL IL-4 for 10 min. The source says: Cryopreserved Peripheral Blood Mononuclear Cells (PBMC) are from AllCells. Recombinant Human IL-4 and IL-6 are from Peprotech. Mouse monoclonal anti-STAT3 antibody, rabbit monoclonal anti-pY705-STAT3 antibody, rabbit monoclonal Anti-pY641-STAT6 antibody, and lysis buffer are from Cell Signaling Technology (CST). Mouse monoclonal anti-STAT6 antibody is from BioLegend. Assay plates, blocker, and anti-rabbit secondary antibody are from Meso Scale Discovery (MSD).
Cryopreserved PBMCs were thawed out and allowed to recover overnight in IMDM+10% heat-inactivated FBS prior to plating 50,000 (STAT3) or 25,000 (STAT6) cells per well in 96-well U-bottom tissue culture plates. Cells were treated with compound for 3 hrs, then stimulated with 10 ng/mL IL-6 (STAT3) or 1 ng/mL IL-4 (STAT6) for 10 min. Cells were then spun down and washed with ice-cold PBS prior to lysing the cell pellet with 1× lysis buffer (CST) with 1×HALT protease and phosphatase inhibitor cocktail (Thermo). Lysates were transferred to and incubated overnight at 4° C. with shaking in QuickPlex 96-well high bind assay plates (MSD) pre-coated overnight with 30 μL per well of 0.6 μg/mL mouse monoclonal anti-STAT3 antibody (STAT3) or 2 μg/mL mouse monoclonal anti-STAT6 antibody (STAT6) in 1×PBS, and pre-blocked for 1 hour with 3% Blocker-A (MSD). Captured protein in the assay plates were then washed and probed with 25 μL per well of 0.25 μg/ml rabbit monoclonal anti-pY705-STAT3 antibody (STAT3) or […] rabbit monoclonal Anti-pY641-STAT6 antibody (STAT6) in 1% Blocker-A for 1 hour at room temperature with shaking, then washed and probed with 25 ul per well of 1 ug/ml Sulfo-TAG Labeled Goat Anti-Rabbit Antibody (MSD) in 1% Blocker-A for 1 hour at room temperature with shaking. Assay plates were then washed and 150 μL of 1× Read Buffer-T (MSD) was added to each well prior to reading on an SQ120 MSD Plate Reader. Assay signal from each sample was subtracted by the signal from unstimulated control wells and normalized to DMSO control wells. IC50 values were calculated using Graph Pad Prism Dose-Response Nonlinear Regression with variable slope. For both pSTAT3 and pSTAT6 A=≤100 nM; B=>100-1000 nM; C=>1000-3000 nM; and D=>3 μM.
Compound `CCCOC(=O)[C@H](C)NP(=O)(Oc1ccccc1)C(F)c1ccc2ccc(C(=O)N[C@H]3CN(C(=O)c4noc5ccc(C)cc45)CC[C@H]4CC[C@@H](C(=O)N5C[C@@H](C)O[C@@H](C)C5)N4C3=O)cc2c1` (stereo partly drawn) [Compound 440, propyl (((7-(((5S,8S,10aR)-8-((2R,6S)-2,6-dimethyl-morpholine-4-carbonyl)-3-(5-methylbenzo [d]isoxazole-3-carbonyl)-6-oxodeca-hydropyrrolo [1,2-a][1,5]diazocin-5-yl)carbamoyl)naphthalen-2-yl)fluoromethyl) (phenoxy)phosphoryl)-L-alaninate] returned an IC50 not above 100 nM.

With `Cc1ccc2onc(C(=O)N3CC[C@H]4CC[C@@H](C(=O)N5C[C@H](c6ccn(C)c(=O)c6)CC56CC6)N4C(=O)[C@@H](NC(=O)c4ccc5ccc(C(F)(F)P(=O)(OCCSC(=O)C(C)(C)C)OCCSC(=O)C(C)(C)C)cc5c4)C3)c2c1` [Compound 437, S,S′-((((difluoro(7 (((5S,8S,10aR)-8-((S)-6-(1-methyl-2-oxo-1,2-dihydropyridin-4-yl)-4-azaspiro[2.4]heptane-4-carbonyl)-3-(5-methylbenzo [d]isoxazole-3-carbonyl)-6-oxodeca-hydropyrrolo [1,2-a][1,5]diazocin-5-yl)carbamoyl)naphthalen-2-yl)methyl)phosphoryl)bis (oxy))bis (ethane-2,1-diyl))bis(2,2-dimethyl-propanethioate)], the IC50 was not above 100 nM.

`CCCOC(=O)[C@H](C)NP(=O)(Oc1ccccc1)C(F)c1ccc2ccc(C(=O)N[C@H]3CN(C(C)=O)CC[C@H]4CC[C@@H](C(=O)N5CC(c6ccn(C)c(=O)c6)CC56CC6)N4C3=O)cc2c1` (stereo partly drawn) [Compound 406, propyl (((7-(((5S,8S,10aR)-3-acetyl-8-(6-(1-methyl-2-oxo-1,2-dihydro-pyridin-4-yl)-4-azaspiro[2.4]heptane-4-carbonyl)-6-oxodeca-hydropyrrolo [1,2-a] [1,5]diazocin-5-yl)carbamoyl)naphthalen-2-yl)fluoromethyl) (phenoxy)phosphoryl)-L-alaninate]: the IC50 lay in the range of 100 to 1000 nM.

For the compound `CCCOC(=O)[C@H](C)NP(=O)(Oc1ccccc1)C(F)c1ccc2ccc(C(=O)N[C@H]3CN(C(=O)c4ncn5c4CCCC5)CC[C@H]4CC[C@@H](C(=O)N5CCOCC5)N4C3=O)cc2c1` (stereo partly drawn) [Compound 429, propyl ((fluoro(7-(((5S,8S,10aR)-8-(morpholine-4-carbonyl)-6-oxo-3-(5,6,7,8-tetrahydro-imidazo [1,5-a]pyridine-1-carbonyl)decahydropyrrolo [1,2-a][1,5]diazocin-5-yl)carbamoyl)naphthalen-2-yl)methyl) (phenoxy)phosphoryl)-L-alaninate], the IC50 was more than 3000 nM. With `CCCOC(=O)[C@H](C)NP(=O)(Oc1ccccc1)C(F)c1ccc2ccc(C(=O)N[C@H]3CN(C(=O)c4noc5ccc(C)cc45)CC[C@H]4CC[C@@H](C(=O)N5CCOC[C@@H]5c5ccccc5)N4C3=O)cc2c1` (stereo partly drawn) [Compound 412, propyl ((fluoro(7-(((5S,8S,10aR)-3-(5-methylbenzo [d]isoxazole-3-carbonyl)-6-oxo-8-((S)-3-phenyl-morpholine-4-carbonyl)decahydro-pyrrolo [1,2-a][1,5]diazocin-5-yl)carbamoyl)naphthalen-2-yl)methyl) (phenoxy)phosphoryl)-L-alaninate] the figure was 100 to 1000 nM. With `CCCOC(=O)[C@H](C)NP(=O)(Oc1ccccc1)[C@@H](F)c1ccc2ccc(C(=O)N[C@H]3CN(C(=O)c4noc5ccc(C)cc45)CC[C@H]4CC[C@@H](C(=O)N5CC6CCC(C5)O6)N4C3=O)cc2c1` (stereo partly drawn) [Compound 416, propyl (((1R)-(7-(((5S,8S,10aR)-8-(8-oxa-3-azabicyclo [3.2.1]octane-3-carbonyl)-3-(5-methylbenzo [d]isoxazole-3-carbonyl)-6-oxodeca-hydropyrrolo [1,2-a][1,5]diazocin-5-yl)carbamoyl)naphthalen-2-yl)fluoromethyl) (phenoxy)phosphoryl)-L-alaninate] the figure was not above 100 nM. With `CCCOC(=O)[C@H](C)NP(=O)(Oc1ccccc1)C(F)c1ccc2ccc(C(=O)N[C@H]3CN(C(=O)c4noc5ccc(C)cc45)CC[C@H]4CC[C@@H](C(=O)N5CCOC[C@H]5c5ccccc5)N4C3=O)cc2c1` (stereo partly drawn) [Compound 413, propyl ((fluoro(7-(((5S,8S,10aR)-3-(5-methylbenzo [d]isoxazole-3-carbonyl)-6-oxo-8-((R)-3-phenyl-morpholine-4-carbonyl)decahydro-pyrrolo [1,2-a][1,5]diazocin-5-yl)carbamoyl)naphthalen-2-yl)methyl) (phenoxy)phosphoryl)-L-alaninate] the figure was not above 100 nM; with `CCCOC(=O)[C@H](C)NP(=O)(Oc1ccccc1)C(F)c1ccc2ccc(C(=O)N[C@H]3CN(C(=O)c4ncn5ccccc45)CC[C@H]4CC[C@@H](C(=O)N5CCOCC5)N4C3=O)cc2c1` (stereo partly drawn) [Compound 423, propyl ((fluoro(7-(((5S,8S,10aR)-3-(imidazo[1,5-a]pyridine-1-carbonyl)-8-(morpholine-4-carbonyl)-6-oxodecahydro-pyrrolo [1,2-a][1,5]diazocin-5-yl)carbamoyl)naphthalen-2-yl)methyl) (phenoxy)phosphoryl)-L-alaninate], more than 3000 nM; with `CCCOC(=O)[C@H](C)NP(=O)(Oc1ccccc1)C(F)c1ccc2ccc(C(=O)N[C@H]3CN(C(=O)c4noc5ccc(Cl)cc45)CC[C@H]4CC[C@@H](C(=O)N5CCOCC5)N4C3=O)cc2c1` (stereo partly drawn) [Compound 430, propyl (((7-(((5S,8S,10aR)-3-(5-chlorobenzo[d]isoxazole-3-carbonyl)-8-(morpholine-4-carbonyl)-6-oxodecahydro-pyrrolo [1,2-a][1,5]diazocin-5-yl)carbamoyl)naphthalen-2-yl)fluoromethyl) (phenoxy)phosphoryl)-L-alaninate], not above 100 nM. In the case of `Cc1ccc2onc(C(=O)N3CC[C@H]4CC[C@@H](C(=O)N5C[C@@H](c6cc[nH]c(=O)c6)CC56CC6)N4C(=O)[C@@H](NC(=O)c4ccc5ccc(C(F)(F)P(=O)(OCCSC(=O)C(C)(C)C)OCCSC(=O)C(C)(C)C)cc5c4)C3)c2c1` [Compound 435, S,S′-((((difluoro(7 (((5S,8S,10aR)-3-(5-methylbenzo [d]isoxazole-3-carbonyl)-6-oxo-8-((R)-6-(2-oxo-1,2-dihydro-pyridin-4-yl)-4-azaspiro[2.4]heptane-4-carbonyl)decahydro-pyrrolo[1,2-a] [1,5]diazocin-5-yl)carbamoyl)naphthalen-2-yl)methyl)phosphoryl)bis(oxy))bis (ethane-2,1-diyl))bis(2,2-dimethyl-propanethioate)], the IC50 is not above 100 nM.

For `CCCOC(=O)[C@H](C)NP(=O)(Oc1ccccc1)C(F)c1ccc2ccc(C(=O)N[C@H]3CN(C(=O)c4noc5ccc(C)cc45)CC[C@H]4CC[C@@H](C(=O)N5CCN(c6nsc7ccccc67)CC5)N4C3=O)cc2c1` (stereo partly drawn) [Compound 411, propyl (((7-(((5S,8S,10aR)-8-(4-(benzo[d]isothiazol-3-yl)piperazine-1-carbonyl)-3-(5-methylbenzo [d]isoxazole-3-carbonyl)-6-oxodeca-hydropyrrolo [1,2-a][1,5]diazocin-5-yl)carbamoyl)naphthalen-2-yl)fluoromethyl) (phenoxy)phosphoryl)-L-alaninate], the IC50 is more than 3000 nM. Regarding `Cc1ccc2onc(C(=O)N3CC[C@H]4CC[C@@H](C(=O)N5C[C@@H](c6ccn(C)c(=O)c6)CC56CC6)N4C(=O)[C@@H](NC(=O)c4ccc5ccc(C(F)(F)P(=O)(OCCSC(=O)C(C)(C)C)OCCSC(=O)C(C)(C)C)cc5c4)C3)c2c1` [Compound 436, S,S′-((((difluoro(7-(((5S,8S,10aR)-8-((R)-6-(1-methyl-2-oxo-1,2-dihydropyridin-4-yl)-4-azaspiro[2.4]heptane-4-carbonyl)-3-(5-methylbenzo [d]isoxazole-3-carbonyl)-6-oxodeca-hydropyrrolo [1,2-a][1,5]diazocin-5-yl)carbamoyl)naphthalen-2-yl)methyl)phosphoryl)bis (oxy))bis (ethane-2,1-diyl))bis(2,2-dimethyl-propanethioate)], the IC50 is not above 100 nM. The result for `CCCOC(=O)[C@H](C)NP(=O)(Oc1ccccc1)C(F)c1ccc2ccc(C(=O)N[C@H]3CCN(C(=O)c4cc(C)cc(Cl)c4)C[C@H]4CC[C@@H](C(=O)N5CCOCC5)N4C3=O)cc2c1` (stereo partly drawn) [Compound 422, propyl (((7-(((5S,8S,10aR)-2-(3-chloro-5-methylbenzoyl)-8-(morpholine-4-carbonyl)-6-oxodeca-hydropyrrolo [1,2-a][1,4]diazocin-5-yl)carbamoyl)naphthalen-2-yl)fluoromethyl) (phenoxy)phosphoryl)-L-alaninate] reads 1000 to 3000 nM.

By IC50 is commonly meant the concentration needed to halve the response being measured. A higher IC50 goes with weaker potency.
